In test [1] the target is T1, Glutamate receptor 2 (Homo sapiens, UniProt P42262). The test is described as follows: Antagonist activity at closed state of GFP-tagged GluA2Qflip isoform (unknown origin) expressed in HEK293S cells assessed as reduction in glutamate-induced current response in presence of 0.1 mM glutamate by whole cell assay. The class given is cell-based.
Test [2] addresses T1, Glutamate receptor 2. Nature of the test: Antagonist activity at open state of GFP-tagged GluA2Qflip isoform (unknown origin) expressed in HEK293S cells assessed as reduction in glutamate-induced current response in presence of 3 mM glutamate by whole cell assay relative to control. The class given is cell-based.
The target of test [3] is T1, Glutamate receptor 2. The test is described as follows: Antagonist activity at closed state of GluA2Qflip isoform (unknown origin) expressed in HEK293 cells assessed as reduction in glutamate-induced current response at 1 uM in presence of 0.1 mM glutamate by whole cell assay relative to control. It counts as cell-based.
The target of test [4] is T1, Glutamate receptor 2. Nature of the test: Antagonist activity at open state of GluA2Qflip isoform (unknown origin) expressed in HEK293 cells assessed as reduction in glutamate-induced current response at 1 uM in presence of 3 mM glutamate by whole cell assay relative to control. It counts as cell-based.
For test [5], the target named is T1, Glutamate receptor 2. Nature of the test: Antagonist activity at closed state of GluA2Qflip isoform (unknown origin) expressed in HEK293 cells assessed as reduction in glutamate-induced current response at 10 uM in presence of 0.1 mM glutamate by whole cell assay relative to control. The class given is cell-based.
In test [6] the target is T1, Glutamate receptor 2. Nature of the test: Antagonist activity at open state of GluA2Qflip isoform (unknown origin) expressed in HEK293 cells assessed as reduction in glutamate-induced current response at 10 uM in presence of 3 mM glutamate by whole cell assay relative to control. The class given is cell-based.
The target in test [7] is T1, Glutamate receptor 2. The test is described as follows: Antagonist activity at closed state of GluA2Qflip isoform (unknown origin) expressed in HEK293 cells assessed as reduction in glutamate-induced current response in presence of 0.1 mM glutamate by whole cell assay. It counts as cell-based.
Test [8] concerns the target T1, Glutamate receptor 2. Nature of the test: Antagonist activity at open state of GluA2Qflip isoform (unknown origin) expressed in HEK293 cells assessed as reduction in glutamate-induced current response in presence of 3 mM glutamate by whole cell assay relative to control. It counts as cell-based.
Test [9] addresses T1, Glutamate receptor 2. Nature of the test: Antagonist activity at closed state of GluA2Qflip isoform (unknown origin) expressed in HEK293 cells assessed as reduction in glutamate-induced current response at 2.5 uM in presence of 0.1 mM glutamate by whole cell assay relative to control. The class given is cell-based.
In test [10] the target is T1, Glutamate receptor 2. The test is described as follows: Antagonist activity at open state of GluA2Qflip isoform (unknown origin) expressed in HEK293 cells assessed as reduction in glutamate-induced current response at 2.5 uM in presence of 3 mM glutamate by whole cell assay relative to control. The class given is cell-based.
Test [11] deals with T2, Glutamate receptor 1 (Homo sapiens, UniProt P42261). The test is described as follows: Antagonist activity at closed state of GluA1 (unknown origin) assessed as reduction in glutamate-induced current response in presence of 40 to 50 uM glutamate relative to control.
Test [12] concerns the target T2, Glutamate receptor 1. Nature of the test: Antagonist activity at open state of GluA1 (unknown origin) assessed as reduction in glutamate-induced current response in presence of 2 mM glutamate relative to control.
The target in test [13] is T3, Glutamate receptor 3 (Homo sapiens, UniProt P42263). Nature of the test: Antagonist activity at closed state of GluA3 (unknown origin) assessed as reduction in glutamate-induced current response in presence of 100 uM glutamate relative to control.
In test [14] the target is T3, Glutamate receptor 3. Nature of the test: Antagonist activity at open state of GluA3 (unknown origin) assessed as reduction in glutamate-induced current response in presence of 3 mM glutamate relative to control.
Test [15] deals with T4, Glutamate receptor 4 (Homo sapiens, UniProt P48058). The test is described as follows: Antagonist activity at closed state of GluA4 (unknown origin) assessed as reduction in glutamate-induced current response in presence of 100 uM glutamate relative to control.
Test [16] concerns the target T4, Glutamate receptor 4. Nature of the test: Antagonist activity at open state of GluA4 (unknown origin) assessed as reduction in glutamate-induced current response in presence of 3 mM glutamate relative to control.
Test [17] addresses T2, Glutamate receptor 1. The test is described as follows: Antagonist activity at closed state of GluA1 (unknown origin) assessed as reduction in glutamate-induced current response in presence of 40 to 50 uM glutamate.
Test [18] concerns the target T2, Glutamate receptor 1. Nature of the test: Antagonist activity at open state of GluA1 (unknown origin) assessed as reduction in glutamate-induced current response in presence of 2 mM glutamate.
For test [19], the target named is T3, Glutamate receptor 3. Nature of the test: Antagonist activity at closed state of GluA3 (unknown origin) assessed as reduction in glutamate-induced current response in presence of 100 uM glutamate.
Test [20] has as its target T3, Glutamate receptor 3. Nature of the test: Antagonist activity at open state of GluA3 (unknown origin) assessed as reduction in glutamate-induced current response in presence of 3 mM glutamate.
Test [21] has as its target T4, Glutamate receptor 4. The test is described as follows: Antagonist activity at closed state of GluA4 (unknown origin) assessed as reduction in glutamate-induced current response in presence of 100 uM glutamate.
Test [22] deals with T4, Glutamate receptor 4. Nature of the test: Antagonist activity at open state of GluA4 (unknown origin) assessed as reduction in glutamate-induced current response in presence of 3 mM glutamate.

Usually Ki stands for a measure of affinity in units of concentration, obtained from inhibition or displacement.

T2 sequence (P42261 whole entry): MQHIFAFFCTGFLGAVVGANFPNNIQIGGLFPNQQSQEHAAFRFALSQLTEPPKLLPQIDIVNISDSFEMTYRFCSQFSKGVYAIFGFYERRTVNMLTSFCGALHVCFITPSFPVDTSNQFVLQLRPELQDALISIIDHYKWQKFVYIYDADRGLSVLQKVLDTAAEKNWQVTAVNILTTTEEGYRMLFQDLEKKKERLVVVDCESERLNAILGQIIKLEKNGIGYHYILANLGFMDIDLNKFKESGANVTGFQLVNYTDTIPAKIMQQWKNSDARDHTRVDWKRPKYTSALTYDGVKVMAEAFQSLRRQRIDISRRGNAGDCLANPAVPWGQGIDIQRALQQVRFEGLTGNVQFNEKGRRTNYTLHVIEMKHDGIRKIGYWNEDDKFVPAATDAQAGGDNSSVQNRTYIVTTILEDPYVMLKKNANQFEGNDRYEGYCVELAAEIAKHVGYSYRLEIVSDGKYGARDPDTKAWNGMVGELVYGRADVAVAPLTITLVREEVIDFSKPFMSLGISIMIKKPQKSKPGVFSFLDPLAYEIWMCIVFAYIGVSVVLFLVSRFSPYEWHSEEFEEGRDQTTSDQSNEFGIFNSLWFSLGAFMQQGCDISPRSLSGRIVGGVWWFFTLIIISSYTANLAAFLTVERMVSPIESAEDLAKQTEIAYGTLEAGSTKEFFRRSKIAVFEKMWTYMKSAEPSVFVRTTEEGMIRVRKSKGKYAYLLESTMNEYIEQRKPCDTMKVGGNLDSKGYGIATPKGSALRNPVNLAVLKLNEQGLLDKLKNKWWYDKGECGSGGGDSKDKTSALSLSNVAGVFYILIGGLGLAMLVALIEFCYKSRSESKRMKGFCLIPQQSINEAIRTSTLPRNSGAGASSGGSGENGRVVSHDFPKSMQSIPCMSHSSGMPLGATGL
T1 sequence (P42262 whole entry, canonical isoform): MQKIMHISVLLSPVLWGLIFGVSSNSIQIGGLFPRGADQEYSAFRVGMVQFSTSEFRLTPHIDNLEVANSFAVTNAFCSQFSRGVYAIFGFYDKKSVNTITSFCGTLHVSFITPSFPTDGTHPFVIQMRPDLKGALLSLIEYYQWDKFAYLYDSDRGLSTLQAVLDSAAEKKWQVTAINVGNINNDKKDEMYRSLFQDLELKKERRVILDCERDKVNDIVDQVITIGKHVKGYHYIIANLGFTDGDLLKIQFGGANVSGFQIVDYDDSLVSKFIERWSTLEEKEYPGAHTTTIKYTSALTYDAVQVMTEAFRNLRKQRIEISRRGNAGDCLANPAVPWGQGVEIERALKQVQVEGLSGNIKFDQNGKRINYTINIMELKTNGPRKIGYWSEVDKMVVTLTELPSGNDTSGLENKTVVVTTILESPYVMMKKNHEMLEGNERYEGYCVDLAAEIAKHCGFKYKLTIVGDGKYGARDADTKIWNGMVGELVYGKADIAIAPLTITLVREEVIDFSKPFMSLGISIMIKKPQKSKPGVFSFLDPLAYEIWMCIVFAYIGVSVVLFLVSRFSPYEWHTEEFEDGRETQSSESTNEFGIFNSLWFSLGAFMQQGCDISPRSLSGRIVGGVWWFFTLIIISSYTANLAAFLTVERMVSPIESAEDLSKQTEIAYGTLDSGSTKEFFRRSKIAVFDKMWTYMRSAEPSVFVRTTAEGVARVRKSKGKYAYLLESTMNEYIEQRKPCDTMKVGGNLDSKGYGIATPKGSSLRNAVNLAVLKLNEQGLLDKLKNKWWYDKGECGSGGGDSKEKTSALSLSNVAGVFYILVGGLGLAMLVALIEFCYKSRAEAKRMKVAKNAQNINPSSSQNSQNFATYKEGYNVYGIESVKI
T4 sequence (P48058 whole entry): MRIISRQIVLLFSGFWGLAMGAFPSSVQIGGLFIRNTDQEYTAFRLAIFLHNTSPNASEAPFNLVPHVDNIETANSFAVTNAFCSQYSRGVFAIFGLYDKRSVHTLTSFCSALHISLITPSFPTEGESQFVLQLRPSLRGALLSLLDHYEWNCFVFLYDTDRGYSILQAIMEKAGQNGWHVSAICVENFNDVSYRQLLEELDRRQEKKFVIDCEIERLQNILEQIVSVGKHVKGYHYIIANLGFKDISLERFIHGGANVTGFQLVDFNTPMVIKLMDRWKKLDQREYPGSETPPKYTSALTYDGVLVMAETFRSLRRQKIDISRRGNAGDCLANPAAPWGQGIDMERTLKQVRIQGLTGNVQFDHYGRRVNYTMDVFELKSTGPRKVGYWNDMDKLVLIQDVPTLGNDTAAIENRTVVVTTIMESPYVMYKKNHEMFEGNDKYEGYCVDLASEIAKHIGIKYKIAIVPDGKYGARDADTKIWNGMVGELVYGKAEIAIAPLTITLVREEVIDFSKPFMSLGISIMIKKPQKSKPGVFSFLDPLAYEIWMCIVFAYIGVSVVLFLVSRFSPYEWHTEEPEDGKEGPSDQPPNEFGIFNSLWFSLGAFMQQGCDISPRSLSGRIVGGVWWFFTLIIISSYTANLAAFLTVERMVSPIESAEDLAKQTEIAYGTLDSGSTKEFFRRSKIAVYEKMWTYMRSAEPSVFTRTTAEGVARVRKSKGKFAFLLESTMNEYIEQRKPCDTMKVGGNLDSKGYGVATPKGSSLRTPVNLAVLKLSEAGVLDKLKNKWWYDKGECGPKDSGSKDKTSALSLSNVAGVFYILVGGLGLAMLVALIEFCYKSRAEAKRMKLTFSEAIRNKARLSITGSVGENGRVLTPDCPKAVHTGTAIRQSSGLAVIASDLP
T3 sequence (P42263 whole entry): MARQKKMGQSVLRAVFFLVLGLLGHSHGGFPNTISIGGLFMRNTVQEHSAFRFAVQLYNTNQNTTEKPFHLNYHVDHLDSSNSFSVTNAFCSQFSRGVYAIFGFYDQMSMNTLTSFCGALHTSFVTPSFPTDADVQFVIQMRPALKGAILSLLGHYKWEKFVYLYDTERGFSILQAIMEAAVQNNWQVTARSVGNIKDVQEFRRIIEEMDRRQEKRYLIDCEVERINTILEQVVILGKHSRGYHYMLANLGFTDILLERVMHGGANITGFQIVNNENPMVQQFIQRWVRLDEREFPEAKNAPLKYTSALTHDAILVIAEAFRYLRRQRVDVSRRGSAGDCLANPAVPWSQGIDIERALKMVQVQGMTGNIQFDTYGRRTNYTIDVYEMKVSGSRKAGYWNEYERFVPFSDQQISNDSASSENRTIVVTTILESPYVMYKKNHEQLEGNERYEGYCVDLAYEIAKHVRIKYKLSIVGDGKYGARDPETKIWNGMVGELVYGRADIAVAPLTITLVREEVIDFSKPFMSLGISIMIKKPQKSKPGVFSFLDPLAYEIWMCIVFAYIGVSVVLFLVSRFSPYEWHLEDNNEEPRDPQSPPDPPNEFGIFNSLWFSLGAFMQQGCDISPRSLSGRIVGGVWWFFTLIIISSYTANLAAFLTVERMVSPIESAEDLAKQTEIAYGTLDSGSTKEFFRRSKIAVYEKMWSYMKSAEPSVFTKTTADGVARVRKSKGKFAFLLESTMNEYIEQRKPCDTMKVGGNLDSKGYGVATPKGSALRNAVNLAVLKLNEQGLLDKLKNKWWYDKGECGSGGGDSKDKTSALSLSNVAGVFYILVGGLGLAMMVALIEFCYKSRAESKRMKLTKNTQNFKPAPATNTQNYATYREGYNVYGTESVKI

As to `CC1=NN=C(c2ccc(N)cc2)c2cc3c(cc2C1)OCO3` [GYKI-52466], the results for the Ki at Glutamate receptor 2 [1] and at Glutamate receptor 2 [2] were 4 µM and 5 µM, respectively.
On to `Nc1ccc(C2=NN(CC3CC(Br)=NO3)C(=O)Cc3cc4c(cc32)OCCO4)cc1` (stereo not drawn), for which the fold change (FC) is 1.44 at Glutamate receptor 2 [3] and 1.09 at Glutamate receptor 2 [4].
On the same counts, the results for `Cc1cc(C2=NN(C3CC(Br)=NO3)C(=O)Cc3cc4c(cc32)OCCO4)cc(C)c1N` (stereo not drawn) are 1.21 and 1.24.
Take `Cc1cc(C2=NN(CC3CC(Br)=NO3)C(=O)Cc3cc4c(cc32)OCCO4)ccc1N` (stereo not drawn): the values for the fold change (FC) at Glutamate receptor 2 [5] and at Glutamate receptor 2 [6] were 1.23 and 1.2, respectively. Further, the Ki on Glutamate receptor 2 [7] and at Glutamate receptor 2 [8] (read-out: Ki) was 50 µM in each case.
Turning to `Cc1cc(C2=NN(CC3CC(Br)=NO3)C(=O)Cc3cc4c(cc32)OCCO4)cc(C)c1N` (stereo not drawn), the fold change (FC) at Glutamate receptor 2 [9] was 1.46; at Glutamate receptor 2 [10], 0.95; at Glutamate receptor 1 [11], 1.19; at Glutamate receptor 1 [12], 1.39; on Glutamate receptor 3 [13] it was 1.09; at Glutamate receptor 3 [14] it was 1.18. Moreover, the fold change (FC) turned out to be 1.34 at Glutamate receptor 4 [15] and 1.22 at Glutamate receptor 4 [16]. For the same compound, the Ki was 5 µM on Glutamate receptor 2 [7]; “Not Active” at Glutamate receptor 2 [8]; 13.2 µM on Glutamate receptor 1 [17]; 6.4 µM on Glutamate receptor 1 [18]; 27.8 µM at Glutamate receptor 3 [19]; 13.9 µM at Glutamate receptor 3 [20]. For the same compound, the Ki on Glutamate receptor 4 [21] was found to be 7.4 µM; on Glutamate receptor 4 [22] it was 11.4 µM.
Consider `Nc1ccc(C2=NNC(=O)Cc3cc4c(cc32)OCCO4)cc1`, for which the Ki at Glutamate receptor 2 [1] was found to be 21 µM; on Glutamate receptor 2 [2], 33 µM.
With `Nc1ccc(C2=NN(C3CC(Br)=NO3)C(=O)Cc3cc4c(cc32)OCCO4)cc1` (stereo not drawn), the fold change (FC) turned out to be 1.75 on Glutamate receptor 2 [9] and 1.18 at Glutamate receptor 2 [10]. Moreover, the Ki came out at 3 µM at Glutamate receptor 2 [7] and 14 µM on Glutamate receptor 2 [8] (read-out: Ki).
As to `Cc1cc(C2=NNC(=O)Cc3cc4c(cc32)OCCO4)cc(C)c1N`, the Ki at Glutamate receptor 2 [1] is 94 µM; on Glutamate receptor 2 [2], 164 µM.
For `Cc1cc(C2=NNC(=O)Cc3cc4c(cc32)OCCO4)ccc1N`, in that order: 4 µM and 9 µM.
For the compound `Cc1cc(C2=NN(C3CC(Br)=NO3)C(=O)Cc3cc4c(cc32)OCCO4)ccc1N` (stereo not drawn), the figures for the fold change (FC) on Glutamate receptor 2 [3] and at Glutamate receptor 2 [4] were 1.01 and 1.16, respectively.

The record behind these values is ChEMBL document CHEMBL4052654, “Development of novel N-3-bromoisoxazolin-5-yl substituted 2,3-benzodiazepines as noncompetitive AMPAR antagonists” (Bioorg Med Chem, 2017).
